This is an account of results in paper PMC12267056 (Nature, 2025).

Changes are numbered by the printed parent chain. Where “and” joins values, the source holds several entries; their conditions need not be identical. Equal values may be shown once.

A word on the Km: it is the substrate concentration at which the rate is half of its maximum.

In series [1] the target is T1, SLC35B1 Q190A (Homo sapiens, UniProt P78383, Q190A).
T1 sequence (P78383 1-322 Q190A): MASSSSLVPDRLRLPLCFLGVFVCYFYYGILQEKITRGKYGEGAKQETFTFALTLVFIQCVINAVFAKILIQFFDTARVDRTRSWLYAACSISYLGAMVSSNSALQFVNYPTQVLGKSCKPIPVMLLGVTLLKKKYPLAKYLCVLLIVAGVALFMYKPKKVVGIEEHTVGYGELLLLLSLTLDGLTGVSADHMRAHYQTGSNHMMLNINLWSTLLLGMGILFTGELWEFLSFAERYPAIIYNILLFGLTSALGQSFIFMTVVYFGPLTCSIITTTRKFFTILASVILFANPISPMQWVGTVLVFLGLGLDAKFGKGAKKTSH
Particulars: variant Q190A; 1 mM ATP.

In series [2] the target is T2, SLC35B1 I257E (Homo sapiens, UniProt P78383, I257E).
T2 sequence (P78383 1-322 I257E): T1 sequence (P78383 1-322 Q190A) with A190Q, I257E
Particulars: variant I257E; 37 °C.

Series [3] has as its target T3, SLC35B1 K277A (Homo sapiens, UniProt P78383, K277A).
T3 sequence (P78383 1-322 K277A): T1 sequence (P78383 1-322 Q190A) with A190Q, K277A
Particulars: variant K277A; 1 mM ATP.

The target in series [4] is T4, SLC35B1 C269A (Homo sapiens, UniProt P78383, C269A).
T4 sequence (P78383 1-322 C269A): T1 sequence (P78383 1-322 Q190A) with A190Q, C269A
Particulars: variant C269A; 37 °C.

In series [5] the target is SLC35B1 R194A (Homo sapiens, UniProt P78383, R194A). Conditions: variant R194A; 1 mM ATP.
Series [6] concerns the target T5, human SLC35B1 (wild type) (Homo sapiens, UniProt P78383).
T5 sequence (P78383 1-322): T1 sequence (P78383 1-322 Q190A) with A190Q
Conditions: single temperature 37 °C.

Series [7] deals with SLC35B1 T273A (Homo sapiens, UniProt P78383, T273A). Conditions: variant T273A; 1 mM ATP.
In series [8] the target is T6, SLC35B1 R276A (Homo sapiens, UniProt P78383, R276A).
T6 sequence (P78383 1-322 R276A): T1 sequence (P78383 1-322 Q190A) with A190Q, R276A
Conditions: variant R276A; 37 °C.

For series [9], the target named is T6, SLC35B1 R276A. Particulars: variant R276A; 1 mM ATP.
The target in series [10] is SLC35B1 K120A (Homo sapiens, UniProt P78383, K120A). The series can be described thus: biochemical. Particulars: read-out: ΔTm, individual titrations (source data), variant K120A; 1 mM ATP.
The subject of series [11] is BiP. Conditions: cited from earlier work.
The target of series [12] is T5, human SLC35B1 (wild type). It is filed as binding. On the set-up: made in house; host or cells: Saccharomyces cerevisiae FGY217.
Series [13] addresses T7, SLC35B1 Q113F (Homo sapiens, UniProt P78383, Q113F).
T7 sequence (P78383 1-322 Q113F): T1 sequence (P78383 1-322 Q190A) with Q113F, A190Q
Conditions: variant Q113F; 1 mM ATP.

Series [14] has as its target T2, SLC35B1 I257E. Particulars: variant I257E; 1 mM ATP.
Series [15] deals with crude ER microsomes. Particulars: read-out: Km for ATP import into crude ER microsomes; cited from earlier work.

Chain of SLC35B1 K120A (P78383 whole entry K120A): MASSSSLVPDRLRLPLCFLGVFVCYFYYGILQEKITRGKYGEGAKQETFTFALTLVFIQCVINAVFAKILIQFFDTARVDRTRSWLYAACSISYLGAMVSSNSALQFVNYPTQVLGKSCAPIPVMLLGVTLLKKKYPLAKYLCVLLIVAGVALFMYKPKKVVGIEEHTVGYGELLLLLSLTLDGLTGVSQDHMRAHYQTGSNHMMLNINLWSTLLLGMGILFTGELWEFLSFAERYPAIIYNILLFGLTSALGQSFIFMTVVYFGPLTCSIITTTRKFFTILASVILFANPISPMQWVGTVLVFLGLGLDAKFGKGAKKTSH
Chain of SLC35B1 R194A (P78383 whole entry R194A): as the sequence (P78383 whole entry K120A) above, with A120K, R194A counted along it
Chain of SLC35B1 T273A (P78383 whole entry T273A): as the sequence (P78383 whole entry K120A) above, with A120K, T273A counted along it

As to `Nc1ncnc2c1ncn2[C@@H]1O[C@H](COP(=O)(O)OP(=O)(O)OP(=O)(O)O)[C@@H](O)[C@H]1O` [ATP], the “ΔTm, individual titrations (source data)” value in series [1] is 5.9; in series [3] it was 2.51; in series [7], 2.49; in [9] it was 0.15 and 0.2; in series [13], 6.34; in series [14], 1.4. Also, the figures for the “Concentration-dependent ATP thermostabilization” value in series [2], in series [4] and in series [8] were “severely diminished”, “still able to interact with ATP” and “no clear thermostabilization”, respectively. Moreover, the “DTM (ΔTm with ATP)” value in series [5] is listed as “robust ATP binding”. In addition, the “Concentration of maximal thermostabilization” value in [6] is recorded as 1 mM. Also, the ΔTm at 1000 µM in series [10] worked out at 1.17 °C. Moreover, the “kcat of BiP” value in series [11] is 0.013 min⁻¹. Also, the “ΔTm (average melting temperature increase)” value in [12] (1 mM nucleotide, purified wild-type SLC35B1–GFP) amounted to 5.2 °C. Further, the “GFP fluorescence after heating (source data Fig 1B)” value in series [12] (temperature 40, 1 mM substrate) worked out at 49.9464. Besides, the Km in [15] is 3 to 5 µM and 4 µM.
